Source: publication PMC11111691, “Cystine-knot peptide inhibitors of HTRA1 bind to a cryptic pocket within the active site region” (Nature Communications, 2024)
Entries after “also recorded” stand apart in the source; their conditions may differ. Positions of bridges follow the written chain, without caps; N, C: chain ends. Non-standard residues stand in square brackets, D forms with d. Residues, ends and D or L forms follow the SMILES beside them. No end group written: not given here. Tyr(3-Cl) = N[C@@H](Cc1ccc(O)c(Cl)c1)C(=O)O

Legend:
HTRA1^FL = target: T1, HTRA1^FL (Homo sapiens, UniProt Q92743); experiment: HTRA1^FL enzyme inhibition assay with synthetic substrate H2-OPT; assay type: biochemical
T1 construct: Human full-length HTRA1 (HTRA1^FL, Q23-P480); made in house; host or cells: Trichoplusia ni cells
T1 sequence (Q92743 23-480): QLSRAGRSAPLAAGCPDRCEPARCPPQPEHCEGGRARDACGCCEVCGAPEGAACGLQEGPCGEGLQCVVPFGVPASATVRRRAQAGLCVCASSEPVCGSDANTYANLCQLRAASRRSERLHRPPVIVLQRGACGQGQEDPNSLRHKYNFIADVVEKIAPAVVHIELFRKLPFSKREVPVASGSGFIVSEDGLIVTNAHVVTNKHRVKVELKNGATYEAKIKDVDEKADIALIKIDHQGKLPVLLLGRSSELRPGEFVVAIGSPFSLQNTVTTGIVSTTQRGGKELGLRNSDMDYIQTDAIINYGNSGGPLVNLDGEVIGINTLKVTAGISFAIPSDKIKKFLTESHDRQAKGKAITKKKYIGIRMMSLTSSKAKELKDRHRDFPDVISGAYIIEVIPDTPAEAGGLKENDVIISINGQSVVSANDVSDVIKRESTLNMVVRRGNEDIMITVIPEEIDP
Protocol: (§1) Assays with the fluorescence-quenched synthetic substrate Mca-IRRVSYSFK(Dnp)K (H2-OPT)[38],[60] were carried out essentially as described. CKP stock solutions in DMSO were diluted in TNC buffer (dilution series for IC50 determinations, or final concentration of 2 µM for selectivity assay or as indicated for HTRA1/4 mutants) and incubated with enzymes in 96-well black optical bottom plates for 60 min at 37 °C. For selectivity experiments we used the 7mer-ABP as inhibitor, which was incubated with the proteases for 15 min at 37 °C. A 10 mM stock solution of H2-OPT in DMSO was diluted with water, prewarmed at 37 °C and then added to the CKP-enzyme mixtures. The final concentrations in the reaction mixtures were: 1 nM HTRA1^FL, 3 nM HTRA1^PD/PDZ, 1 nM HTRA1^PD, 1 nM HTRA2^PD/PDZ, 3 nM HTRA3^FL, 60 nM HTRA3^PD/PDZ, 6 nM HTRA4^FL, 1 µM HTRA4^PD/PDZ, 1 nM mouse HTRA1^PD, 25 nM HTRA1^PD-A202Y, 1 µM HTRA4^PD/PDZ-Y200A, 0.5 mM 7mer-ABP, 5 µM H2-OPT, and 0.25% DMSO. The kinetics of substrate cleavage was measured at 37 °C on a SpectraMax M5 microplate reader with excitation of 328 nm and emission of 393 nm. The determined initial rates of cleavage were expressed as percent of control (DMSO control) after subtracting the baseline rates (without enzyme). IC50 values were determined by Sigmoidal 4PL modeling of multiple data points from serial dilutions of CKPs using Prism 9 software (GraphPad). For selectivity assays with HTRA1-4^PD/PDZ constructs, the specific activities of the enzymes and enzyme:CKP inhibitor ratios were as follows: HTRA1^PD/PDZ, 12560 mRFU/min/nM – 1:667; HTRA2^PD/PDZ, 32300 mRFU/min/nM – 1:2000; HTRA3^PD/PDZ, 962 mRFU/min/nM – 1:33; HTRA4^PD/PDZ, 18 mRFU/min/nM – 1:2.

HTRA1^PD(SA) = target: T2, HTRA1^PD(SA) (Homo sapiens, UniProt Q92743, S328A); experiment: SPR binding kinetics to HTRA1^PD(SA); conditions: mean ± S.D. of three or more independent experiments
T2 construct: The protease domains of human HTRA1 (HTRA1^PD; D161-K379); made in house; host or cells: E. coli
T2 sequence (Q92743 161-379 S328A): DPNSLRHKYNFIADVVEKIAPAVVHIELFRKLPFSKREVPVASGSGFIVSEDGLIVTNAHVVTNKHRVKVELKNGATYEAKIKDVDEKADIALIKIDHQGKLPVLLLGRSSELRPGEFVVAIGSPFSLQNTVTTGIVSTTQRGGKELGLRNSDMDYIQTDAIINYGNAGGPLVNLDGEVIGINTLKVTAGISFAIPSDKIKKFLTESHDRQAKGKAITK
Protocol: Surface plasmon resonance (SPR) experiments were performed using a Biacore S200 instrument at 25 °C. His-tagged HTRA proteins were captured on a CM5 sensor chip using the His-capture kit (GE Healthcare). Protein concentrations used for immobilization were as follows; HTRA1^PD(SA), HTRA1^PD and HTRA1^PD-ABP 2 µg/ml with 60-s injections at 10 µl/min, HTRA2^PD/PDZ, HTRA3^PD/PDZ, and HTRA4^PD/PDZ 4 µg/ml with 60-s injections at 10 µl/min. Approximate immobilization levels of HTRA proteins were as follows; HTRA1^PD(SA) 700 RU, HTRA1^PD 900 RU, HTRA1^PD-ABP 900 RU, HTRA2^PD/PDZ 500 RU, HTRA3^PD/PDZ 500 RU, HTRA4^PD/PDZ 500 RU. All CKPs were prepared in HBS-EP buffer (0.01 M HEPES pH 7.4, 0.15 M NaCl, 3 mM EDTA, 0.005% v/v Surfactant P20). All CKP concentrations were injected for 120 s at a flow rate of 30 μl/min. A reference channel was subtracted from the HTRA-captured channel.
Binding kinetics of peptides to HTRA1^PD(SA) were determined by flowing six serial three-fold dilutions of peptide over the HTRA1^PD(SA) immobilized surface using a single cycle kinetics model. CKP maximum concentrations were as follows: 1A7, 1A8, 1C10, 2D5, and 3A7, 300 nM; 1G10-ENI and 1D3-ENI, 100 nM; 3B3, 3000 nM; and CPI, 10,000 nM. Data were analyzed using GE BIA evaluation software using a 1:1 Langmuir binding model. The KD values, calculated from the determined kon and koff values, were the mean ± S.D. of 3–4 independent experiments.

HTRA4^PD/PDZ, HTRA4^FL = target: T3, HTRA4^PD/PDZ, HTRA4^FL (Homo sapiens, UniProt P83105); experiment: H2-OPT selectivity assay, HTRA4; assay type: biochemical; conditions: 6 nM HTRA4^FL, 2 µM CKP; p<0.001 vs DMSO
T3 construct: purchased Abcam (FL form); the PD/PDZ form was made in house in E. coli ab134444
T3 sequence (P83105 32-476): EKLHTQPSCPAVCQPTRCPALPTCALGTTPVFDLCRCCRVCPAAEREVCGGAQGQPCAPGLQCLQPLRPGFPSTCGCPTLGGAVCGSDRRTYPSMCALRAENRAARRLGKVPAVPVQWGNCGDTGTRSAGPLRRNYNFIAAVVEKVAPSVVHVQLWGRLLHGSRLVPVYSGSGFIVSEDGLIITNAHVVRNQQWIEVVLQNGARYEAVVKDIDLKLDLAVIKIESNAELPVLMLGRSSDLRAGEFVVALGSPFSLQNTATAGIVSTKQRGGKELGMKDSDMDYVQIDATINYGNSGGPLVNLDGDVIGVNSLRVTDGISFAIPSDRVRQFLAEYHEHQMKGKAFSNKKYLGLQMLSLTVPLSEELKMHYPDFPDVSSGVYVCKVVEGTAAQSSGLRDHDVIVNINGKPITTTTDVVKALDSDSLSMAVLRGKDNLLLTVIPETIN
Protocol: as §1

CKP stability assay = assay type: physicochemical; conditions: chemical stability, PBS containing 0.15% DMSO, 0.3 mM (~1 mg/ml), 37 °C, LC-MS, HPLC UV 220 nm peak area normalized to DMSO peak, two independent experiments, preliminary
Protocol: The CKPs 1G10 and 1G10-ENI were incubated in PBS containing 0.15% DMSO at a concentration of 0.3 mM (~1 mg/ml) at 37 °C for 30 days. Samples from two independently performed experiments were frozen at −20 °C until further analysis. Thawed samples were diluted in H2O and injected into LC-MS (Agilent). From the HPLC UV trace (at 220 nm) the CKP peak area was normalized to the DMSO peak area from the same run. The values obtained from multiple HPLC runs were averaged and shown as dot plot.

[1] = SPR, calculated from kon and koff, CPI up to 10 µM
[2] = SPR Biacore S200, 25 °C, single cycle kinetics, 1:1 Langmuir model

Compound: CC[C@H](C)[C@H](NC(=O)[C@@H]1CCCN1C(=O)[C@H](CC(=O)O)NC(=O)[C@H](C)NC(=O)[C@@H](N)Cc1c[nH]cn1)C(=O)N[C@H]1CSSC[C@@H]2NC(=O)[C@H](Cc3ccccc3)NC(=O)[C@H](Cc3c[nH]c4ccccc34)NC(=O)[C@H](C)NC(=O)CNC(=O)[C@H](CO)NC(=O)[C@@H]3CSSC[C@@H](C(=O)NCC(=O)N4CCC[C@H]4C(=O)N[C@@H](Cc4ccc(O)cc4)C(=O)N[C@H](C(=O)NCC(N)=O)C(C)C)NC(=O)[C@H]([C@@H](C)O)NC(=O)[C@H](CCCNC(=N)N)NC(=O)[C@H](C)NC(=O)[C@H](CO)NC(=O)[C@H](CC(N)=O)NC(=O)[C@H](Cc4c[nH]c5ccccc45)NC(=O)[C@H](CSSC[C@H](NC(=O)[C@@H]4CCCN4C(=O)[C@H](CCCCN)NC(=O)[C@H](CC(N)=O)NC1=O)C(=O)N[C@@H](CCCCN)C(=O)N[C@@H]([C@@H](C)O)C(=O)N[C@@H](Cc1c[nH]cn1)C(=O)N[C@@H](CC(=O)O)C(=O)N[C@@H](CC(=O)O)C(=O)N3)NC(=O)[C@H](C)NC(=O)[C@H](CCC(N)=O)NC2=O [CPI, reference compound] (H-HADPICNKPCKTHDDCSGAWFCQACWNSARTCGPYVG-NH2; disulfide 6-22, 10-25, 16-32)
- Inhibition of HTRA1^FL activity (inhibition curves) (HTRA1^FL; H2-OPT substrate, Fig. 1b): no activity
- KD (HTRA1^PD(SA); [1]): No binding

Compound: CC[C@H](C)[C@H](NC(=O)[C@H](CCC(N)=O)NC(=O)[C@H](CCCNC(=N)N)NC(=O)[C@H](CC(C)C)NC(=O)CNC(=O)[C@H](Cc1c[nH]c2ccccc12)NC(=O)CNC(=O)[C@@H]1CSSC[C@@H]2NC(=O)[C@H](CC(=O)O)NC(=O)[C@H](CC(=O)O)NC(=O)[C@H](Cc3c[nH]cn3)NC(=O)[C@H]([C@@H](C)O)NC(=O)[C@H](CCCCN)NC(=O)[C@@H]3CSSC[C@H](NC(=O)[C@H]([C@@H](C)O)NC(=O)[C@H](CCC(N)=O)NC(=O)[C@H](CSSC[C@H](NC(=O)[C@@H](NC(=O)[C@@H]4CCCN4C(=O)[C@H](CC(=O)O)NC(=O)[C@H](C)NC(=O)[C@@H](N)Cc4c[nH]cn4)[C@@H](C)CC)C(=O)N[C@@H](CC(N)=O)C(=O)N[C@@H](CCCCN)C(=O)N4CCC[C@H]4C(=O)N3)NC(=O)[C@H](Cc3ccccc3)NC(=O)[C@H](Cc3c[nH]c4ccccc34)NC(=O)[C@H](C)NC(=O)CNC(=O)[C@H](CO)NC2=O)C(=O)N[C@@H](Cc2ccc(O)cc2)C(=O)N[C@@H](Cc2ccc(O)cc2)C(=O)N[C@@H](C)C(=O)N[C@@H]([C@@H](C)O)C(=O)N[C@@H](Cc2c[nH]c3ccccc23)C(=O)N[C@@H](CO)C(=O)N1)C(=O)N[C@@H](CC(=O)O)C(N)=O [1A8] (H-HADPICNKPCKTHDDCSGAWFCQTCYYATWSCGWGLRQID-NH2; disulfide 6-22, 10-25, 16-32)
- IC50 (HTRA1^FL): 1.9 ± 0.15 nM
- Reduction of HTRA4^FL activity, H2-OPT (HTRA4^PD/PDZ, HTRA4^FL): 13%
- koff (HTRA1^PD(SA); [2]): 0.5 ± 0.1 s-1 x10-4
- kon (HTRA1^PD(SA); [2]): 8.2 ± 3.5 M-1 s-1 x104
- Kd (HTRA1^PD(SA); [1]): 0.66 ± 0.42 nM

Compound: YPVDPICNKPCKTHDDCSGAWFCQTCYYATWSCGWGLRQID-NH2 (disulfide 7-23, 11-26, 17-33) [1G10]
- Stability: intact peptide after 30 days (CKP stability assay): no change in peptide mass at 30 days; also recorded: highly stable

Compound: CC[C@H](C)[C@H](NC(=O)[C@H](CCC(N)=O)NC(=O)[C@H](CCCNC(=N)N)NC(=O)[C@H](CC(C)C)NC(=O)CNC(=O)[C@H](Cc1c[nH]c2ccccc12)NC(=O)CNC(=O)[C@@H]1CSSC[C@@H]2NC(=O)[C@H](CC(=O)O)NC(=O)[C@H](CC(=O)O)NC(=O)[C@H](Cc3c[nH]cn3)NC(=O)[C@H]([C@@H](C)O)NC(=O)[C@H](CCCCN)NC(=O)[C@@H]3CSSC[C@H](NC(=O)[C@H]([C@@H](C)O)NC(=O)[C@H](CCC(N)=O)NC(=O)[C@H](CSSC[C@H](NC(=O)[C@@H](NC(=O)[C@@H]4CCCN4C(=O)[C@H](CC(=O)O)NC(=O)[C@H](C)NC(=O)[C@@H](N)Cc4c[nH]cn4)[C@@H](C)CC)C(=O)N[C@@H](CC(N)=O)C(=O)N[C@@H](CCCCN)C(=O)N4CCC[C@H]4C(=O)N3)NC(=O)[C@H](Cc3ccccc3)NC(=O)[C@H](Cc3c[nH]c4ccccc34)NC(=O)[C@H](C)NC(=O)CNC(=O)[C@H](CO)NC2=O)C(=O)N[C@@H](Cc2ccc(O)cc2)C(=O)N[C@@H](Cc2ccc(O)cc2)C(=O)N[C@@H](C)C(=O)N[C@@H](CC(N)=O)C(=O)N[C@@H](Cc2c[nH]c3ccccc23)C(=O)N[C@@H](CO)C(=O)N1)C(=O)N[C@@H](CC(=O)O)C(N)=O [1A8.L5.1] (H-HADPICNKPCKTHDDCSGAWFCQTCYYANWSCGWGLRQID-NH2; disulfide 6-22, 10-25, 16-32)
- IC50 (HTRA1^FL): 1 ± 0.1 nM

Compound: CC[C@H](C)[C@H](NC(=O)[C@H](CCC(N)=O)NC(=O)[C@H](CCCNC(=N)N)NC(=O)[C@H](CC(C)C)NC(=O)CNC(=O)[C@H](Cc1c[nH]c2ccccc12)NC(=O)CNC(=O)[C@@H]1CSSC[C@@H]2NC(=O)[C@H](CC(=O)O)NC(=O)[C@H](CC(=O)O)NC(=O)[C@H](Cc3c[nH]cn3)NC(=O)[C@H]([C@@H](C)O)NC(=O)[C@H](CCCCN)NC(=O)[C@@H]3CSSC[C@H](NC(=O)[C@H]([C@@H](C)O)NC(=O)[C@H](CCC(N)=O)NC(=O)[C@H](CSSC[C@H](NC(=O)[C@@H](NC(=O)[C@@H]4CCCN4C(=O)[C@H](CC(=O)O)NC(=O)[C@H](C)NC(=O)[C@@H](N)Cc4c[nH]cn4)[C@@H](C)CC)C(=O)N[C@@H](CC(N)=O)C(=O)N[C@@H](CCCCN)C(=O)N4CCC[C@H]4C(=O)N3)NC(=O)[C@H](Cc3ccccc3)NC(=O)[C@H](Cc3c[nH]c4ccccc34)NC(=O)[C@H](C)NC(=O)CNC(=O)[C@H](CO)NC2=O)C(=O)N[C@@H](Cc2ccc(O)c(Cl)c2)C(=O)N[C@@H](Cc2ccc(O)cc2)C(=O)N[C@@H](C)C(=O)N[C@@H]([C@@H](C)O)C(=O)N[C@@H](Cc2c[nH]c3ccccc23)C(=O)N[C@@H](CO)C(=O)N1)C(=O)N[C@@H](CC(=O)O)C(N)=O [1A8.Y26Y(3Cl)] (H-HADPICNKPCKTHDDCSGAWFCQTC[Tyr(3-Cl)]YATWSCGWGLRQID-NH2; disulfide 6-22, 10-25, 16-32)
- IC50 (HTRA1^FL): 2.4 ± 0.3 nM
